The values that follow come from patent publication US20200345776A1, “CELL” (AUTOLUS LIMITED, priority 2017, published 2020).

Assay [1] deals with SKOV3 cells. The settings on record: positive control of cell killing/inhibition, 10 ug/ml; cited from earlier work.
The target in the next assay is Adenosine A2AR receptor (Homo sapiens, UniProt P29274). Particulars: cited from earlier work.
The subject of assay [2] is SKOV3 cells. Briefly: Co-culture of violacein-producing SupT1 cells with SKOV3 cells, live cell imaging. It is filed as cell-based, human. The settings on record: FIG. 12, co-culture. As for the experimental part: The following day the indicated supT1 cells were added to the SKOV3 cells at density of 20,000 cells per well in a total volume of 200 ul cell culture medium. Cells were continuously monitored in a Incycute live cell imager and the number of viable SKOV3 cells enumerated every hour by counting the presence of red fluorescent nuclei.

Assay [3] concerns KM12 colon-cancer cell lines. Particulars: cited from earlier work.
The test system of the next assay is MOLT-4 leukaemia. The settings on record: cited from earlier work.
Assay [4] concerns NCI-H460 non-small-cell lung cancer. The settings on record: cited from earlier work.
In the next assay the test system is cancer cells. The settings on record: cited from earlier work.

Chain of Adenosine A2AR receptor (P29274 whole entry): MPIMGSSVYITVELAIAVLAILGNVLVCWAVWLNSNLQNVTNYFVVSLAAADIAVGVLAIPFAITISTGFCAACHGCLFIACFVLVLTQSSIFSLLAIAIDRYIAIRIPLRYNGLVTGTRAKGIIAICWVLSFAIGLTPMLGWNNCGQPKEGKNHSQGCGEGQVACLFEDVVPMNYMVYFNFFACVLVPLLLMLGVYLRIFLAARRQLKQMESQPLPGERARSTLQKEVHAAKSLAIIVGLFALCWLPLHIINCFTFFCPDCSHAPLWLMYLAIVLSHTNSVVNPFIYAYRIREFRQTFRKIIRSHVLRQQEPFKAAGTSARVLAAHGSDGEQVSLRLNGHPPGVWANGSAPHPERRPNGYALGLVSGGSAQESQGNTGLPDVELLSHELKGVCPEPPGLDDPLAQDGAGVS

As for `COc1cc([C@@H]2c3cc4c(cc3[C@@H](O[C@@H]3O[C@@H]5CO[C@@H](C)O[C@H]5[C@H](O)[C@H]3O)[C@H]3COC(=O)[C@H]23)OCO4)cc(OC)c1O` [Etoposide], the “Apoptosis of SKOV3 cells” value in the assay on SKOV3 cells [1] is listed as “induces the apoptosis”.

Take `Cn1c(=O)c2c(ncn2C)n(C)c1=O` [Caffeine]: the “Action on Adenosine A2AR receptor expressed on T cells” value at Adenosine A2AR receptor was “known antagonist”.

Take `O=C1NC(c2c[nH]c3ccc(O)cc23)=C/C1=C1\C(=O)Nc2ccccc21` [Violacein]: the “Toxicity of violacein produced by SupT1 cells to SKOV3 tumour cells” value in the assay with SKOV3 cells [2] is recorded as “toxic”. Besides, the “Activity against KM12 colon-cancer cell lines” value in assay [3] was “has activity”. Also, the “Activity against MOLT-4 leukaemia” value with MOLT-4 leukaemia is listed as “has activity”. Also, in assay [4], the “Activity against NCI-H460 non-small-cell lung cancer” value was “has activity”.

On to `CC(C)=CCC/C(C)=C/CO` [Geraniol], for which the “Effect against cancer cells in vitro” value in the assay with cancer cells is given as “anti-proliferative/pro-apoptotic effect”.
